One assay addresses Acetylcholinesterase (Homo sapiens, UniProt P22303). Type of assay: functional.
For assay [1], the target named is T1, Muscarinic acetylcholine receptor M2 (Homo sapiens, UniProt P08172).
T1 sequence (P08172 whole entry): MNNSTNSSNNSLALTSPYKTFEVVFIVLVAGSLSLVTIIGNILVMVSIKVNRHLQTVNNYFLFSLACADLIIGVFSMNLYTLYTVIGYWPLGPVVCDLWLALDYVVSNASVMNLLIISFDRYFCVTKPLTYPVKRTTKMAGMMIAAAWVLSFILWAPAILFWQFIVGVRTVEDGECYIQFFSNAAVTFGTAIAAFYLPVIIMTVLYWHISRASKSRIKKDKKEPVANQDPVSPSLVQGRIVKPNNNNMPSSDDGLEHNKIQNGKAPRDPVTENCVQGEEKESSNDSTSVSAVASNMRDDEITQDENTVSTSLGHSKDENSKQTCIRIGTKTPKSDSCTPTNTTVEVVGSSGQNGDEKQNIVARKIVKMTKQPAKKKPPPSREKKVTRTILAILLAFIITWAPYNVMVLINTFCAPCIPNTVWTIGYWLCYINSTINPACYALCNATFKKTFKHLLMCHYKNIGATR

Assay [2] has as its target T2, Thromboxane A2 receptor (Homo sapiens, UniProt P21731).
T2 sequence (P21731 whole entry): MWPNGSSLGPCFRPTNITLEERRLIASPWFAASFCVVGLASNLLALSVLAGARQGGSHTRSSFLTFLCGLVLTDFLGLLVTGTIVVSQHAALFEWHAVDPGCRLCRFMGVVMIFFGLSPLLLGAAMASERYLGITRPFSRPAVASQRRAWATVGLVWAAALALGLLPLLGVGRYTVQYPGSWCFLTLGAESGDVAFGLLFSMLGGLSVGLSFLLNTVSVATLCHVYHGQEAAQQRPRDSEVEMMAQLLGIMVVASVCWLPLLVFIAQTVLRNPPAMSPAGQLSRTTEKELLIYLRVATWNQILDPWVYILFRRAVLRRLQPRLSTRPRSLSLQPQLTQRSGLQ
Type of assay: functional, cell-based.

In another assay the target is T3, Adenosine receptor A3 (Homo sapiens, UniProt P0DMS8).
T3 sequence (P0DMS8 whole entry): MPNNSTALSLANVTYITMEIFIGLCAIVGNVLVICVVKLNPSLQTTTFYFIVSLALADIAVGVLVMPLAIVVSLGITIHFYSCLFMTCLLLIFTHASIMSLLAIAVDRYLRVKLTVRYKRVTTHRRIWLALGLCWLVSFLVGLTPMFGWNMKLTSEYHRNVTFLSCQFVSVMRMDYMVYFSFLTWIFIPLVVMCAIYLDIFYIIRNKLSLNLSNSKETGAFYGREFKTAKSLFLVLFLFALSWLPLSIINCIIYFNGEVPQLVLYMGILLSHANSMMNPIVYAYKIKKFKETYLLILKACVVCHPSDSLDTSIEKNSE

In the next assay the target is D(1A) dopamine receptor (Homo sapiens, UniProt P21728).
Assay [3] concerns the target T4, Alpha-2A adrenergic receptor (Homo sapiens, UniProt P08913).
T4 sequence (P08913 whole entry): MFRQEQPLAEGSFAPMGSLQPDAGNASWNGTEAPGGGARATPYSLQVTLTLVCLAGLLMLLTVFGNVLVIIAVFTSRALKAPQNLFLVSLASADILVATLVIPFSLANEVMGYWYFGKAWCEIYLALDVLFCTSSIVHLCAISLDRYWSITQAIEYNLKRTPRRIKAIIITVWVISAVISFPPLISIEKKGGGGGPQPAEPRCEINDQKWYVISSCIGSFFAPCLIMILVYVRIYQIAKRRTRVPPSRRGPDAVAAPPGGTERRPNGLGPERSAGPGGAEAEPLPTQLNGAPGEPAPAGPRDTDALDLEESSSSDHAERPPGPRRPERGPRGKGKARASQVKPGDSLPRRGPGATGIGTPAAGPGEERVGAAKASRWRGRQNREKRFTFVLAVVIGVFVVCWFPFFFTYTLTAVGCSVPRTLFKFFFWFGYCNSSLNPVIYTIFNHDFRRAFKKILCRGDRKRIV

Assay [4] has as its target 5-hydroxytryptamine receptor 2B (Homo sapiens, UniProt P41595). The format is functional, cell-based.
The target in the next assay is Prothrombin (Homo sapiens, UniProt P00734). The format is functional.
Assay [5] concerns the target T5, 5-hydroxytryptamine receptor 1A (Homo sapiens, UniProt P08908).
T5 sequence (P08908 whole entry): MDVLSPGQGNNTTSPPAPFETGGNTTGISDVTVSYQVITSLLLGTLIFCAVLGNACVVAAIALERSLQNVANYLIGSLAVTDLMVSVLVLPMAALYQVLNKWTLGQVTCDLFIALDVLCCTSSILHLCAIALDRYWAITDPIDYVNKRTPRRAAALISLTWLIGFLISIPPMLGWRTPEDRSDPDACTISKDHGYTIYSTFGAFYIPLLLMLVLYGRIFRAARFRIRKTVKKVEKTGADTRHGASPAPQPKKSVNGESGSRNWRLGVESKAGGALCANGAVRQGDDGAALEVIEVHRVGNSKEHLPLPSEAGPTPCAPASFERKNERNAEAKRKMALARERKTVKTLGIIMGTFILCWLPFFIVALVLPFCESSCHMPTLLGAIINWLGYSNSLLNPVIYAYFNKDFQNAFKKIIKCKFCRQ

Assay [6] deals with 3',5'-cyclic-AMP phosphodiesterase 4A (Homo sapiens, UniProt P27815). The format is functional.
The target of assay [7] is T2, Thromboxane A2 receptor. Type of assay: functional, cell-based. The source holds these as a separate data set.
The target of assay [8] is T6, Alpha-1A adrenergic receptor (Homo sapiens, UniProt P35348).
T6 sequence (P35348 whole entry): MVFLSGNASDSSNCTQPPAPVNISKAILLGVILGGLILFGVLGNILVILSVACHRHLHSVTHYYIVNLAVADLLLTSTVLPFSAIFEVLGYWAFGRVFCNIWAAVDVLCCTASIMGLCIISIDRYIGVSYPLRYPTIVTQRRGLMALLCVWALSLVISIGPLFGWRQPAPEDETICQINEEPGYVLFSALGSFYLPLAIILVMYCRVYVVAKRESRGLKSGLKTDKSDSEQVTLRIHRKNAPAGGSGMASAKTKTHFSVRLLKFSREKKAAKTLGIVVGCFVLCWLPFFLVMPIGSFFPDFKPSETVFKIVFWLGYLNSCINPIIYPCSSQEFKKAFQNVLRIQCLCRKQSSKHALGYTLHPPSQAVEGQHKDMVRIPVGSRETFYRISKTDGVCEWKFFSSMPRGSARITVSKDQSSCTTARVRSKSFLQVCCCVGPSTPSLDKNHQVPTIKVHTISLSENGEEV
Type of assay: functional, cell-based.

In assay [9] the target is T6, Alpha-1A adrenergic receptor. Type of assay: functional, cell-based. This is another data set of the same source.
Also: assay procedure not described here.

3',5'-cyclic-AMP phosphodiesterase 4A, sequence (P27815 whole entry): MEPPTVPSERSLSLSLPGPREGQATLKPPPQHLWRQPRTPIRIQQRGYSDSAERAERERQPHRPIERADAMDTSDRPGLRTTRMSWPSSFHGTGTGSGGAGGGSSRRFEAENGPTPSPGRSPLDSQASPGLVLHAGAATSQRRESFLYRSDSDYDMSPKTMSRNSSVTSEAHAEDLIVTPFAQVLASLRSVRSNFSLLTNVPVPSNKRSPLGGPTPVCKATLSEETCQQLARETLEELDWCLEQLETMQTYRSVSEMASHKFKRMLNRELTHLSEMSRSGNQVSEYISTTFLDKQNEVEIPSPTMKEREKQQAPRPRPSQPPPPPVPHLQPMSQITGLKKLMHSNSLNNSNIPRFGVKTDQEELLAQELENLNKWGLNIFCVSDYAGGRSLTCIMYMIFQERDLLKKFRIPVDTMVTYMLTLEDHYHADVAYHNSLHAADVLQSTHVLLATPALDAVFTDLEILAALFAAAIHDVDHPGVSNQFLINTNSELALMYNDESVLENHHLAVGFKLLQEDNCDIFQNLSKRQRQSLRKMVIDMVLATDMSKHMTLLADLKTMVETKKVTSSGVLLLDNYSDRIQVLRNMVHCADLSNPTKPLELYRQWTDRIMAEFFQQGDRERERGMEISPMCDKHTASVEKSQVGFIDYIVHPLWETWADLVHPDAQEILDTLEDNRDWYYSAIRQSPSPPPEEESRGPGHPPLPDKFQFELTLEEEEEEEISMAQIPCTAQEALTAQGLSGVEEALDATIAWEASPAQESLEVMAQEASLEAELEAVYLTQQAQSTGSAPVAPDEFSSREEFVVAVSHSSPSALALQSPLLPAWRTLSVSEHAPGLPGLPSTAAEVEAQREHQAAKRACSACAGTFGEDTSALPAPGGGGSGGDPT
5-hydroxytryptamine receptor 2B, sequence (P41595 whole entry): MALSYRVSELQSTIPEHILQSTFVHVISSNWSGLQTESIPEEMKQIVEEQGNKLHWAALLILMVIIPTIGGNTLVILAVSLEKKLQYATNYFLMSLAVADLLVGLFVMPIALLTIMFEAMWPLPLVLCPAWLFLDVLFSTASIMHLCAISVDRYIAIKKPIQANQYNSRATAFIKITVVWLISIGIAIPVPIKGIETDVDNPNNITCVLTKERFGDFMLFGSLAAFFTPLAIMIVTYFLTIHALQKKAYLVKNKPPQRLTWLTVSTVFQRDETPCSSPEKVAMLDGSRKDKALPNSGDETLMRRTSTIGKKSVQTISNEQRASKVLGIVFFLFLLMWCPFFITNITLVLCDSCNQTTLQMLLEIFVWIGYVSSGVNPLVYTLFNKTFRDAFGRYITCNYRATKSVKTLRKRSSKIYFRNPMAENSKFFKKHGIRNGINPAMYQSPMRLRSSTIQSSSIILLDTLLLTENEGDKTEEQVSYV
Acetylcholinesterase, sequence (P22303 whole entry): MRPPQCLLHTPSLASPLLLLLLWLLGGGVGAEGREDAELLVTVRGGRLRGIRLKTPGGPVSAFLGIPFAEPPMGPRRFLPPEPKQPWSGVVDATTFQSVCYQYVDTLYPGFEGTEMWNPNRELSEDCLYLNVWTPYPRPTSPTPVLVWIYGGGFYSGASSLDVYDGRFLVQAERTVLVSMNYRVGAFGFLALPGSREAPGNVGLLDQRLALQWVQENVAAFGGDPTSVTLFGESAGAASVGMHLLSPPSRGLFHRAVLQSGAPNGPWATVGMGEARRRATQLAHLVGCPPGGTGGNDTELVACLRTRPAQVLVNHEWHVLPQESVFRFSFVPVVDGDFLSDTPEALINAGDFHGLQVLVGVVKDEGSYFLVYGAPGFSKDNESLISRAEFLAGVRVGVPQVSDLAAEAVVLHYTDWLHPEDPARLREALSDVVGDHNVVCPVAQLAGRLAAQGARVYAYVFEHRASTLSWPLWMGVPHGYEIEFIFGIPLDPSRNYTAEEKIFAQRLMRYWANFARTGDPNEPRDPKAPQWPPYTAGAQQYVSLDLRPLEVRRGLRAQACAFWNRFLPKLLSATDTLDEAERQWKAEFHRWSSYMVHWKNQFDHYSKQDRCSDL
D(1A) dopamine receptor, sequence (P21728 whole entry): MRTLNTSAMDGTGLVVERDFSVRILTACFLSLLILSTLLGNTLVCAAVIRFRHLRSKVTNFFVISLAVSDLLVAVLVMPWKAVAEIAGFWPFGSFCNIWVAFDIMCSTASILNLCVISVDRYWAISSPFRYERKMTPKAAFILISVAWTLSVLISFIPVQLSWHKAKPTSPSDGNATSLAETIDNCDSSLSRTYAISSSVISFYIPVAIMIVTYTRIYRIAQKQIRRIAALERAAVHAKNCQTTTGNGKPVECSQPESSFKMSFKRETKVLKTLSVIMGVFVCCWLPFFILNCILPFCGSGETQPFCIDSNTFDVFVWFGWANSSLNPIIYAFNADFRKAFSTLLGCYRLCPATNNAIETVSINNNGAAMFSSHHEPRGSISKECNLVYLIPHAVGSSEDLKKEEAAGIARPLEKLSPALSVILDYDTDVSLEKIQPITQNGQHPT

One may read the AC50 as the midpoint of the concentration-response curve, whichever way the signal moves. Low values mean greater potency, high ones weaker potency. Turning to `c1ccc2[nH]c(-c3cscn3)nc2c1` [THIABENDAZOLE], the AC50 on Acetylcholinesterase is over 30 µM; in assay [1] it was over 30 µM; on Thromboxane A2 receptor [2], over 30 µM; at Adenosine receptor A3 it was 3.73 µM; at D(1A) dopamine receptor, over 30 µM; in [3], over 30 µM. Further, the AC50 (in assay [4]; at Prothrombin; in assay [5]; in [6]; on Thromboxane A2 receptor [7]; in assay [8]) was over 30 µM throughout. In assay [9], the AC50 was over 30 µM.

In the case of `C[C@@H]1C[C@H]2[C@@H]3CCC4=CC(=O)C=C[C@]4(C)C3=CC[C@]2(C)[C@H]1C(=O)CN1CCN(c2cc(N3CCCC3)nc(N3CCCC3)n2)CC1` [TIRILAZAD], the AC50 is over 30 µM at Acetylcholinesterase; 0.432 µM in [1]; over 30 µM on Thromboxane A2 receptor [2]; 4.07 µM on Adenosine receptor A3; 7.07 µM on D(1A) dopamine receptor; 17.3 µM in assay [3]. Also, the AC50 in assay [4] is over 30 µM; on Prothrombin, over 30 µM; in assay [5], over 30 µM; in assay [6], 19.4 µM; at Thromboxane A2 receptor [7], over 30 µM; in assay [8], over 30 µM. In addition, the AC50 in assay [9] is over 30 µM.

The record behind these values is ChEMBL document CHEMBL5291721, “A preclinical secondary pharmacology resource illuminates target-adverse drug reaction associations of marketed drugs” (Nat Commun, 2023).
